These results are taken from patent US20220273590A1, “COMPOUNDS FOR PREVENTION AND TREATMENT OF POST-OPERATIVE COGNITIVE DYSFUNCTION” (ABREXA PHARMACEUTICALS, INC., priority 2019, published 2022).

The test system of one data set is animal model of POCD. Nature of the data set: Open Field test after abdominal surgery. It counts as in vivo, Wistar rats. The protocol:
Male Wistar rats (˜350 g) were randomly divided into 4 experimental groups; non-surgery; control abdominal surgery; surgery+acute J147 treatment (7 mg/rat by gavage, 4-5 hours before surgery); surgery+chronic J147 (500 mg/kg food, 1 week before surgery until the end of the study). Timed blood samples were collected. Days 9-11 post surgery, general behavior (Open field: OF) and cognitive performance (Novel Object/Novel Location Recognition: NOR/NLR; Morris Water Maze: MWM) were tested. Day 14, rats were sacrificed and blood and brain tissue were collected for further analyses. (Neuro)inflammation was examined by circulating cytokine levels and microglia activation in the brain. Abdominal surgery was performed as described previously by Hovens et al., 2014. Rats were anaesthetized using sevoflurane (±2.5% in air/O2=2/1) and received 0.01 mg/kg buprenorphine s.c. A heating blanket was used to preserve body temperature. An incision was made along the linea alba and the intestines were exteriorised. The upper mesenteric artery was isolated from surrounding tissue and clamped for a period of 30 minutes during which the intestines and surgical wound were covered with gauze soaked in saline, to prevent dehydration. During this time the animals were equipped with an indwelling jugular vein catheter to mimic insertion of a venous line in patients and allow timed blood sampling. For that, an incision was made at the subclavical region, the jugular vein was freed from surrounding tissue and a catheter was introduced and advanced into the vena cava, just above the right atrium. The other end of the catheter was guided subcutaneously to the head, and fixated on the skull with dental cement. The catheter was filled with PVP dissolved in heparin solution and closed with a plastic plug. After subsequent removal of the mesenteric artery clamp, the intestines were gently placed back and the abdominal wall and skin were closed separately by sutures. Clamping and reperfusion were visually verified by absence or presence of pulsation in the mesenteric artery distal to the clamp site. From induction to recovery, the procedure takes approximately 60 minutes. Post-operatively, the animals were allowed to recover and subsequently were housed individually. Rats were weighed daily at the last hour of the dark period. Maximal weight loss within the first 5 days post-surgery was taken as measure of experienced severity of surgery. Behavioral tests were performed in the dark (active) period of the rats. […] The movement as well as location of the rat was recorded as time in corner, walls and center, number of visits in the center and the distance walked, and analyzed with Ethovision (Noldus, the Netherlands). Rearing behavior was analyzed by Eline. […]

Data set [1] can be described thus: Body weight and food intake in the POCD study. Format: in vivo, Wistar rats. An excerpt: A total of 60 male Wistar rats (Wu-Wistar, Envigo, The Netherlands) were studied in 5 cohorts. For that, rats were ordered in 5 groups of different weight classes (220-280 g) to ensure that each group would be around 350 g at the time of surgery. Rats arrived at the facility at least 2 weeks before start of the experiments, and were put on reversed light:dark cycle 12:12 with the lights out at 09:00 am. Rats were housed in groups of 2-3 in standard cages under controlled conditions (temperature of 20+/−2 degrees and humidity of 50% +/−10%). The rats were fed with water and Teklad (Envigo, 2018) chow food ad libitum. After surgery, rats were housed individually. Approval of all experiments was given by the applicable animal and welfare committee of the Netherlands.
One week before surgery, chronic treatment J147 treatment started and continued until the end of the experiment. The day of surgery, rats for acute treatment received their J147 (4-5 hours before surgery) by gavage, while the designated control rats received vehicle gavage. Rats were subjected to abdominal surgery, and allowed to recover. After that rats were housed individually. Non-surgery control were placed in individual cages at the same time. Blood samples were collected from the jugular vein catheter at the time of surgery (plasma levels of J147) and at 1, 6 and 24 hours after surgery (plasma inflammatory markers). The first week post-surgery, rats were weighed daily and food intake was measured. Day 7-12 post-surgery rats were subjected to behavioral testing regarding general exploratory behavior and cognitive performance. On Day 14 rats were sacrificed, blood samples were collected from cardiac puncture, CSF was collected, and brain tissue was collected and processed for immunohistochemistry or molecular analyses.
For chronic oral treatment, J147 was added to the food (Teklad 2018, Envigo) at a concentration of 500 mg/kg. J147 was provided by Abrexa and Envigo prepared the food. […] After surgery food intake was measured daily during the last hour of the light phase. […]

As to `COc1cccc(/C=N/N(C(=O)C(F)(F)F)c2ccc(C)cc2C)c1` [J147], in the data set on animal model of POCD (acute or chronic J147, surgery rats), the “Open field: effect of treatment on time in the center area or distance walked” value is “no significant effects”. Moreover, in the data set on animal model of POCD (surgery + chronic J147), the “Open field: rearing behavior” value is “significantly more rearing behavior” and the “Open field: visits to the center area” value is recorded as “significantly more often”. Besides, the “Open field: time in the center” value with animal model of POCD (surgery + chronic J147, versus the other groups) is reported as “tend to spend more time in the center”. In data set [1] (chronic J147 500 mg/kg food, week before surgery, control fed rats 33.5±3.0 g), the “body weight gained during first week on the J147 diet” value came out at 32.0 ± 1.8 g. Also, the “average food eaten during the first 10 days after surgery” value in data set [1] (chronic J147 diet, individual housing, surgery control food 20±1 g) was determined as 20 ± 1 g. Further, the “body weight loss after surgery” value in data set [1] (chronically treated rats (J147 500 mg/kg food)) was “lost significantly less body weight after surgery”.
